These results are taken from patent publication US20260034119A1, “5-METHOXY-N,N-[…][…], THEIR […], AND METHODS FOR TREATMENT OF NEUROLOGICAL, […], AND SUBSTANCE USE DISORDERS” (priority 2023, published 2026).

Several values for one entry are separate records, joined by “and”; a condition that tells them apart may be missing. Equal values may be shown once.

In general, EC50 refers to the midpoint of the concentration-response curve. In general, Emax refers to the greatest response seen or fitted, relative to the assay's reference.

Chain of 5-HT2A (P28223 whole entry): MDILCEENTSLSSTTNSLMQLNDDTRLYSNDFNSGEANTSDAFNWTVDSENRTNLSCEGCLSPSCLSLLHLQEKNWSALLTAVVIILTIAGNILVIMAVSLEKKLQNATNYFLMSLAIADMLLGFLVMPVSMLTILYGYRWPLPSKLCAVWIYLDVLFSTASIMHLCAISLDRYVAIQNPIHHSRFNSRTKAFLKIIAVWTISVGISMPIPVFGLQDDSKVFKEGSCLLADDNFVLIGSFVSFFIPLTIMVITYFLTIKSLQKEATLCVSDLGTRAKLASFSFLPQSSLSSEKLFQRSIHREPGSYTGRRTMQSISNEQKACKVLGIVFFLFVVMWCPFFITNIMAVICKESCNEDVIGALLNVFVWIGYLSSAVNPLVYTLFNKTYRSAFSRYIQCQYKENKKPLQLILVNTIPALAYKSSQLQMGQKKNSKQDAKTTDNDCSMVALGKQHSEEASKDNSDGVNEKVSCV

One assay has as its target 5-HT1A (Homo sapiens, UniProt P08908). As to the kind of experiment: BRET signaling assay: 5-HT1A-mediated activation of heterotrimeric Gi1 (TRUPATH, HEK293-T). The following applies: EC50 (nM), Gi1 BRET, 5-HT1A WT. Background: Bioluminescence resonance energy transfer reports proximity on the nanometre scale.
In the case of `CN(C)CCc1c[nH]c2ccc(O)cc12` [Bufotenine (5-OH-DMT), Bufotenine, reference compound], the EC50 was found to be 9.29 nM.

The assay is the same for the next values; noted with them: Gi BRET EC50.
In turn, `CCN(CC)CCc1c[nH]c2ccc(OC)cc12` [Compound 11, 5-MeO-DET] showed an EC50 of 37.1 nM.

Regarding `COc1ccc2[nH]cc(CCN3CC=CC3)c2c1F` [Compound 37, 3-(2-(2,5-dihydro-1H-pyrrol-1-yl)ethyl)-4-fluoro-5-methoxy-1H-indole], the EC50 turned out to be 0.22 nM.

The same assay, now with this note: HEK-293T, read-out: Emax, 5-HT1A-mediated activation of Gi1 (BRET).
As for `O=C1CCc2ccc(OCCCCN3CCN(c4cccc(Cl)c4Cl)CC3)cc2N1` [Aripiprazole, aripiprazole, reference compound], the Emax is 77.1%.

The same assay, now with this note: Table 6, commercial ligands.
For `O=C1CCc2ccc(OCCCCN3CCN(c4cccc(Cl)c4Cl)CC3)cc2N1` [Aripiprazole, aripiprazole, reference compound], the “Efficacy as %5HT 5-HT1A BRET Gi1” value was 77.1 %5HT.

The assay is the same for the next values; noted with them: read-out: Gi BRET EC50.
As for `COc1ccc2[nH]cc(CCN3CCCCC3)c2c1` [Compound 5-MeO-PipT, 5-methoxypiperidinyl-tryptamine], the EC50 worked out at 88.5 nM.

The same assay, now with this note: relative to 5-MeO-PyrT.
Turning to `COc1ccc2[nH]cc(CCN3CCCCC3)c2c1` [Compound 5-MeO-PipT, 5-methoxypiperidinyl-tryptamine], the “loss of potency at 5-HT1A” value is listed as ~42 fold.

Another assay has as its target 5-HT2A (Homo sapiens, UniProt P28223). As to the kind of experiment: cell-based.
Conditions: not given
For `CN(C)CCc1c[nH]c2ccccc12` [Compound 1], the EC50 is 94.4 nM and 93.3 nM.

Take `COc1ccc2[nH]cc(CCN3CC=CC3)c2c1F` [Compound 37, 3-(2-(2,5-dihydro-1H-pyrrol-1-yl)ethyl)-4-fluoro-5-methoxy-1H-indole]: the EC50 was 120 nM.

A further assay has as its target T1, human 5-HT1A (Homo sapiens, UniProt P08908).
T1 sequence (P08908 1-422): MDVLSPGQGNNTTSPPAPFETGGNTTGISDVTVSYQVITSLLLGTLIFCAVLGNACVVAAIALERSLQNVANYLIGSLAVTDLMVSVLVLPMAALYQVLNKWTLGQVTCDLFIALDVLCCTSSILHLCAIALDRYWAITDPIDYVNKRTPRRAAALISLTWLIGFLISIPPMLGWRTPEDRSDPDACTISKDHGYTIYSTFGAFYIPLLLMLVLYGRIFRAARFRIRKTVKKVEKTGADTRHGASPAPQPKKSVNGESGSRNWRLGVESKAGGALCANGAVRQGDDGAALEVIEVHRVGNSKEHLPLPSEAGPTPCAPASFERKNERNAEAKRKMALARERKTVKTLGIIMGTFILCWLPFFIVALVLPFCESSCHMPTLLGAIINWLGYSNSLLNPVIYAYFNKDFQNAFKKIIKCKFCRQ
As to the kind of experiment: cell-based.
Conditions: not given
For the molecule `CCN(C)CCc1c[nH]c2ccccc12` [Compound 2], a half-maximal response (EC50) required 302 nM.

The molecule `CC(C)N(C)CCc1c[nH]c2ccccc12` [Compound 3] yielded an EC50 of 1980 nM.

For `CC(C)N(CCc1c[nH]c2ccccc12)C(C)C` [Compound 4], the midpoint of the response, the EC50, lay at 1330 nM.

In turn, `c1ccc2c(CCN3CCCC3)c[nH]c2c1` [Compound 5] came in with an EC50 of 19.1 nM.

`c1ccc2c(CCN3CCCCC3)c[nH]c2c1` [Compound 6]: the midpoint of the response, the EC50, lay at 485 nM.

For the molecule `C1=CC2CCC1CN2CCc1c[nH]c2ccccc12` (stereo not shown) [Compound 7], the EC50 stood at 15500 nM.

With `C=CCN(CC=C)CCc1c[nH]c2ccc(OC)cc12` [Compound 17], it took 4.66 nM to reach a half-maximal effect (EC50).

`COc1ccc2[nH]cc(CCN3CCCC3C)c2c1` (stereo not shown) [Compound 19] yielded an EC50 of 2.4 nM.

`COc1ccc2[nH]cc(CCn3ccnc3)c2c1` [Compound 22, 3-(2-(1H-imidazol-1-yl)ethyl)-5-methoxy-1H-indole] registered a 50% effective concentration (EC50) of 292 nM.

Turning to `COc1ccc2[nH]cc(CCN3CC=CCC3)c2c1` [Compound 23, 3-(2-(3,6-dihydropyridin-1(2H)-yl)ethyl)-5-methoxy-1H-indole], a half-maximal response (EC50) required 8.77 nM.

In the case of `COc1ccc2[nH]cc(CCN3C[C@H]4C=C[C@@H]3CC4)c2c1` [Compound 24], the EC50 was found to be 628 nM.

`COc1ccc2[nH]cc(CCN3CC=CC3)c2c1F` [Compound 37, 3-(2-(2,5-dihydro-1H-pyrrol-1-yl)ethyl)-4-fluoro-5-methoxy-1H-indole] had an EC50 of 0.00229 nM.

`COc1ccc2[nH]cc(CCN3C[C@H]4C=C[C@@H]3CC4)c2c1F` [Compound 38, (1S,4R)-2-(2-(4-fluoro-5-methoxy-1H-indol-3-yl)ethyl)-2-azabicyclo[2.2.2]oct-5-ene] yielded a concentration giving a half-maximal response (EC50) of 173 nM.

Take `CC[C@H]1C[C@@H]2C=C[C@H]1N(CCc1c[nH]c3ccc(OC)c(F)c13)C2` [Compound 39, (1S,4R,7S)-7-ethyl-2-(2-(4-fluoro-5-methoxy-1H-indol-3-yl)ethyl)-2-aza bicyclo[2.2.2]oct-5-ene]: the EC50 is 47.3 nM and 46.8 nM.

Take `Oc1ccc2[nH]cc(CCN3CCCC3)c2c1F` [Compound 42, 4-fluoro-3-(2-(pyrrolidin-1-yl)ethyl)-1H-indol-5-ol]: the EC50 is 0.04 nM and 0.0417 nM.

Take `COc1ccc2c(c1)c(CCN1CCCC1)cn2C` [Compound 43, 5-methoxy-1-methyl-3-(2-(pyrrolidin-1-yl)ethyl)-1H-indole]: the EC50 stood at 89.1 nM.

In the case of `COc1ccc2c(c1)c(CCN1CC=CC1)cn2C` [Compound 44, 3-(2-(2,5-dihydro-1H-pyrrol-1-yl)ethyl)-5-methoxy-1-methyl-1H-indole], the EC50 worked out at 209 nM.

On to `COc1ccc2c(c1)c(CCn1cccc1)cn2C` [Compound 45, 3-(2-(1H-pyrrol-1-yl)ethyl)-5-methoxy-1-methyl-1H-indole], for which the EC50 is 6580 nM.

`COc1ccc2c(c(CCN3CCCC3)cn2C)c1F` [Compound 46, 4-fluoro-5-methoxy-1-methyl-3-(2-(pyrrolidin-1-yl)ethyl)-1H-indole] registered an EC50 of 100 nM.

Consider `COc1ccc2c(c(CCN3CC=CC3)cn2C)c1F` [Compound 47, 3-(2-(2,5-dihydro-1H-pyrrol-1-yl)ethyl)-4-fluoro-5-methoxy-1-methyl-1H-indole], for which the EC50 is 2.74 nM.

As for `c1ccc(COc2ccc3[nH]cc(CCN4CCCC4)c3c2)cc1` [Compound 48, 5-(benzyloxy)-3-(2-(pyrrolidin-1-yl)ethyl)-1H-indole], the EC50 was 33 nM.

For `Oc1ccc2[nH]cc(CCN3CCCC3)c2c1` [Compound 50, 3-(2-(pyrrolidine-1-yl)ethyl)-1H-indol-5-ol], the EC50 is 0.1 nM and 0.0977 nM.

Regarding `Oc1ccc2[nH]cc(CCN3C[C@H]4C=C[C@@H]3CC4)c2c1` [Compound 51, 3-(2-((1S,4R)-2-azabicyclo[2.2.2]oct-5-eN-2-yl)ethyl)-1H-indol-5-ol], it took 149 nM to reach a half-maximal effect (EC50).

For the molecule `CCN(C)CCc1c[nH]c2cccc(O)c12` [Compound 53, 4-OH-MET], a half-maximal effect (EC50) was put at 769 nM.

`COc1cccc2[nH]cc(CCN(C)C)c12` [Compound 54, 2-(4-methoxy-1H-indol-3-yl)-N,N-dimethylethan-1-amine] showed an EC50 of 558 nM.

With `COc1cccc2[nH]cc(CCN3CCCC3)c12` [Compound 55, 4-methoxy-3-(2-(pyrrolidin-1-yl)ethyl)-1H-indole], the response was half-maximal at 164 nM (EC50).

Regarding `CN(C)CCc1c[nH]c2cccc(F)c12` [Compound 57, 2-(4-fluoro-1H-indol-3-yl)-N,N-dimethylethan-1-amine], the EC50 was 87.7 nM.

On to `Fc1cccc2[nH]cc(CCN3CCCC3)c12` [Compound 58, 4-fluoro-3-(2-(pyrrolidin-1-yl)ethyl)-1H-indole], for which the midpoint of the response, the EC50, lay at 16.7 nM.

Turning to `COc1ccc2c(CCN(C)C)c[nH]c2c1` [Compound 60, 2-(6-methoxy-1H-indol-3-yl)-N,N-dimethylethan-1-amine], the response was half-maximal at 3240 nM (EC50).

`COc1ccc2c(CCN3CCCC3)c[nH]c2c1` [Compound 61, 6-methoxy-3-(2-(pyrrolidin-1-yl)ethyl)-1H-indole] came in with an EC50 of 492 nM.

`COc1ccc2c(CCN3CC=CC3)c[nH]c2c1` [Compound 62, 3-(2-(2,5-dihydro-1H-pyrrol-1-yl)ethyl)-6-methoxy-1H-indole] registered an EC50 of 30.9 nM.

With `CN(C)CCc1c[nH]c2cc3c(cc12)OCO3` [Compound 63, 2-(5H-[1,3]dioxolo[4,5-f]indol-7-yl)-N,N-dimethylethan-1-amine], the EC50 was 64.4 nM and 64.6 nM.

The molecule `c1[nH]c2cc3c(cc2c1CCN1CCCC1)OCO3` [Compound 64, 7-(2-(pyrrolidin-1-yl)ethyl)-5H-[1,3]dioxolo[4,5-f]indole] had an EC50 of 3.5 nM.

In turn, `C1=CC2CCC1CN2CCc1c[nH]c2cc3c(cc12)OCO3` (stereo not shown) [Compound 65] yielded an EC50 of 9890 nM.

As for `CCC1C[C@@H]2C=C[C@H]1N(CCc1c[nH]c3cc4c(cc13)OCO4)C2` (stereo partly drawn) [Compound 66, 7-(2-((1S,4R)-7-ethyl-2-azabicyclo[2.2.2]oct-5-en-2-yl)ethyl)-5H-[1,3]dioxolo[4,5-f]indole], the EC50 stood at 1690 nM.

For `CCN(C)CCc1c[nH]c2ccc(SC)cc12` [Compound 68, N-ethyl-N-methyl-2-(5-(methylthio)-1H-indol-3-yl)ethan-1-amine], the EC50 is 3.35 nM and 3.31 nM.

`Cc1cccc2c(CCN(C)C)c[nH]c12` [Compound 70, N,N-dimethyl-2-(7-methyl-1H-indol-3-yl)ethan-1-amine] showed an EC50 of 1210 nM.

A further assay has as its target T1, human 5-HT1A. As to the kind of experiment: 5-HT1A-mediated cAMP reduction assay (GloSensor, HEK293-T). The conditions noted are these: Activity (5-HT1A cAMP) EC50 (nM), Table 5.
As to `CN(C)CCc1c[nH]c2ncccc12` [Compound 72, N,N-dimethyl-2-(1H-pyrrolo[2,3-b]pyridin-3-yl)ethan-1-amine], the midpoint of the response, the EC50, lay at 1910 nM.

`CCN(CC)CCc1c[nH]c2ncccc12` [Compound 73, N,N-diethyl-2-(1H-pyrrolo[2,3-b]pyridin-3-yl)ethan-1-amine] had an EC50 of 7800 nM.

On to `c1cnc2[nH]cc(CCN3CCCC3)c2c1` [Compound 74, 3-(2-(pyrrolidin-1-yl)ethyl)-1H-pyrrolo[2,3-b]pyridine], for which the midpoint of the response, the EC50, lay at 3240 nM.

As for `c1cnc2[nH]cc(CCN3CCCCC3)c2c1` [Compound 75, 3-(2-(piperidin-1-yl)ethyl)-1H-pyrrolo[2,3-b]pyridine], the EC50 came to 18500 nM.

Consider `COc1ccc2occ(CCN(C)C)c2c1` [Compound 76, 2-(5-methoxybenzofuran-3-yl)-N,N-dimethylethan-1-amine], for which the EC50 was found to be 178 nM.

The same assay, now with this note: EC50 (nM) Mean Gio(cAMP)-1A, Table 2.
In turn, `COc1ccc2[nH]cc(CCN3C[C@H]4C=C[C@@H]3CC4)c2c1F` [Compound 14] gave an EC50 of 173 nM.

Take `CC[C@H]1C[C@@H]2C=C[C@H]1N(CCc1c[nH]c3ccc(OC)c(F)c13)C2` [Compound 15]: the EC50 came out at 47.3 nM.

`CCN(CC)CCc1c[nH]c2ccc(O)c(F)c12` [Compound 17] registered an EC50 of 0.76 nM.

The molecule `Oc1ccc2[nH]cc(CCN3CCCC3)c2c1F` [Compound 18] returned an EC50 of 0.04 nM.

`COc1ccc2c(c(CCN3CCCC3)cn2C)c1F` [Compound 19] showed an EC50 of 100 nM.

The assay is the same for the next values; noted with them: pEC50 Gio(cAMP)-1A, Table 2.
Molecule `CC[C@H]1C[C@@H]2C=C[C@H]1N(CCc1c[nH]c3ccc(OC)c(F)c13)C2` [Compound 15] came in with an EC50 of 46.8 nM.

For the molecule `Oc1ccc2[nH]cc(CCN3CCCC3)c2c1F` [Compound 18], the response was half-maximal at 0.0417 nM (EC50).
